# Like-named read-outs stand apart in the source and are kept apart here.
# Assays:
# Cucumber fusarium wilt = assay: In vitro fungicidal activity, PDA colony diameter; type: cell-based; conditions: 96 h, 50 mg/kg, inhibition of colony diameter, read-out: Fungicidal activity (%) Cucumber fusarium wilt
# [1] = tested on: Cercospora brown spot of peanut; assay: In vitro fungicidal activity, PDA colony diameter; type: cell-based; conditions: 96 h, 50 mg/kg, inhibition of colony diameter, read-out: Fungicidal activity (%) Cercospora brown spot of peanut
# Tomato early blight = assay: In vitro fungicidal activity, PDA colony diameter; type: cell-based, Alternaria solani; conditions: read-out: Fungicidal activity (%) Tomato early blight
# Wheat head blight = assay: whole plant or invertebrate; type: cell-based; conditions: Triticum aestivum, read-out: Fungicidal activity (%) Wheat head blight
# Rice bakanae disease = assay: In vitro fungicidal activity, PDA colony diameter; type: cell-based; conditions: read-out: Fungicidal activity (%) Rice bakanae disease
# Sclerotinia rot of colza = assay: In vitro fungicidal activity, PDA colony diameter; type: cell-based; conditions: 96 h, 50 mg/kg, inhibition of colony diameter, read-out: Fungicidal activity (%) Sclerotinia rot of colza
# Apple ring rot = assay: In vitro fungicidal activity, PDA colony diameter; type: cell-based; conditions: inhibition of colony diameter
# Protocol: (§1) Here, the test is described in an example of Alternaria solani; it can be replaced by other fungi.
# (§2) In vitro testing method: Alternaria solani is inoculated to a PDA culture medium and cultured for 7 days, a fungus dish with a diameter of […] is prepared on the periphery of the colony with a punch and inoculated to a PDA culture medium that contains pesticide at a concentration of 50 mg/kg and a PDA culture medium that doesn't contain the pesticide, and are cultured for 4 days respectively; then, the colony diameters are measured, and the inhibition percentages of the pesticides are calculated by comparing with the control sample.
# [2] = tested on: Capsicum phytophthora blight; assay: In vitro fungicidal activity, PDA colony diameter; type: cell-based; conditions: 96 h
# Protocol: as §1, §2
# Wheat sheath blight = assay: In vitro fungicidal activity, PDA colony diameter; type: cell-based; conditions: 50 mg/kg, inhibition of colony diameter; read-out: Fungicidal activity (%) Wheat sheath blight
# [3] = tested on: Corn southern leaf blight; assay: In vitro fungicidal activity, PDA colony diameter; type: cell-based; conditions: 50 mg/kg, inhibition of colony diameter; read-out: Fungicidal activity (%) Corn southern leaf blight
# Watermelon anthracnose = assay: In vitro fungicidal activity, PDA colony diameter; type: cell-based; conditions: 50 mg/kg, inhibition of colony diameter; read-out: Fungicidal activity (%) Watermelon anthracnose
# Potato late blight = assay: microbe, parasite or virus in culture; type: cell-based; conditions: Phytophthora infestans, 96 h, read-out: Fungicidal activity (%) Potato late blight
# Rice sheath blight = assay: In vitro fungicidal activity, PDA colony diameter; type: cell-based; conditions: read-out: Fungicidal activity (%) Rice sheath blight
# Armyworms = assay: Test of insecticidal activity against armyworms (leaf immersion); conditions: 600 mg/kg, 3-4 days
# Maize borers = assay: Test of insecticidal activity against maize borers (leaf immersion); conditions: read-out: Mortalities (%) Maize borers
# [4] = tested on: mosquito larvae (Culer pipiens pallens); assay: Test of insecticidal activity against mosquito larvae (checked after 24 h)
# Protocol: Method of testing against mosquito larvae: the tested mosquito larvae are Culer pipiens pallens, a normal colony fed indoor. About 5 mg compound to be tested is weighed and loaded into a penicillin vial, 5 mL acetone (or an appropriate solvent) is added into the vial, and the vial is oscillated to dissolve the compound; thus, 1,000 ppm mother liquid is obtained. 1 mL mother liquid is weighed and added into a 100 mL beaker filled with 89 mL water, 10 mosquito larvae in the early stage of the 4th instar together with 10 mL feeding solution are poured into the beaker; thus, the concentration of the pesticide solution is 10 ppm (the pesticide solutions with other concentrations are attained by diluting the mother liquid by corresponding times). […] Water solution that contains 0.5 mL test solvent is used as a blank sample.
# [5] = tested on: bean aphides (Aphis laburni Kaltenbach); assay: Test of insecticidal activity against aphides (leaf immersion, checked after 96 h); conditions: for mortality at 10 mg/kg / mortality at 100 mg/kg / mortality at 600 mg/kg / mortality at 5 mg/kg: Aphis, 96 h, read-out: Mortalities (%) against aphides; for insecticidal activity against aphides compared with pymetrozine: 5 mg/kg
# Cotton bollworms = assay: Test of insecticidal activity against cotton bollworms (pesticide mixed into feedstuff); conditions: read-out: Mortalities (%) Cotton bollworms
# Protocol: Method of testing against cotton bollworms: the pesticide is mixed into the feedstuff, i.e., 3 mL prepared solution is added into about 27 g freshly prepared feedstuff; thus, required concentration is obtained by diluting by 10 times.
# [6] = 50 mg/kg, inhibition of colony diameter
# [7] = 24 h, read-out: Mortalities (%) against mosquito larvae
Structure (SMILES),inhibition of growth at 50 mg/kg (Cucumber fusarium wilt) [%],inhibition of growth at 50 mg/kg [1] [%],inhibition at 50 mg/kg (Tomato early blight; [6]) [%],inhibition at 50 mg/kg (Wheat head blight) [%],inhibition of growth at 50 mg/kg (Sclerotinia rot of colza) [%],inhibition at 50 mg/kg (Apple ring rot) [%],inhibition of growth at 50 mg/kg [2] [%],inhibition at 50 mg/kg (Wheat sheath blight) [%],inhibition at 50 mg/kg [3] [%],inhibition at 50 mg/kg (Watermelon anthracnose) [%],inhibition of growth at 50 mg/kg (Potato late blight) [%],inhibition at 50 mg/kg (Rice sheath blight; [6]) [%],Mortalities (%) Armyworms (Armyworms) [%],mortality at 600 mg/kg (Maize borers) [%],"mortality at 10 mg/kg [4, 7] [%]",mortality at 10 mg/kg [5] [%],mortality at 100 mg/kg [5] [%],mortality at 600 mg/kg [5] [%],mortality at 600 mg/kg (Cotton bollworms) [%],inhibition at 50 mg/kg (Rice bakanae disease; [6]) [%],also measured
"CC1=NNC(=O)N(N(S(=O)(=O)c2ccc(C)cc2)S(=O)(=O)c2ccc(C)cc2)C1 [Ib-6, 4-methyl-N-(6-methyl-3-oxo-2,3-dihydro-1,2,4-triazin-4(5H)-yl)-N-(4-methylbenzenesulfonyl)benzenesulfonamide]",0,15.8,23.8,13.3,15,27.6,26.5,56.8,16.7,29.2,22.2,50.8,15,15,35,30,80,100,15,,inhibition at 50 mg/kg (Rice bakanae disease): 22.2%
"CCCS(=O)(=O)N(N1CC(C)=NNC1=O)S(=O)(=O)CCC [Ib-3, N-(6-methyl-3-oxo-2,3-dihydro-1,2,4-triazin-4(5H)-yl)-N-(n-propylsulfonyl)propyl-1-sulfonamide]",0,15.8,0,10,40,17.2,26.5,52.3,20.8,25,22.2,38.1,10,10,25,,,75,5,38.9,
"CC1=NNC(=O)N(NS(=O)(=O)c2c(C)noc2C)C1 [Ia-30, 3,5-dimethyl-N-(6-methyl-3-oxo-2,3-dihydro-1,2,4-triazin-4(5H)-yl)-isoxazolyl-4-sulfonamide]",23.1,19.2,20,12.1,12.5,23.8,11.5,7.5,19.4,25,14.3,,20,15,35,,45,95,25,14.8,inhibition at 50 mg/kg (Rice sheath blight): 14.3%
"CC1=NNC(=O)N(NS(=O)(=O)Cc2ccccc2)C1 [Ia-7, N-(6-methyl-3-oxo-2,3-dihydro-1,2,4-triazin-4(5H)-yl)-phenylmethylsulfonamide]",0,15.8,,30,31.7,41.4,36.7,63.6,20.8,20.8,33.3,30.2,0,0,70,20,75,100,35,38.9,inhibition at 50 mg/kg (Tomato early blight): 33.3%
"CC1=NNC(=O)N(NS(=O)(=O)c2ccc(C(F)(F)F)cc2)C1 [Ia-26, N-(6-methyl-3-oxo-2,3-dihydro-1,2,4-triazin-4(5H)-yl)-4-(trifluoromethyl)-benzenesulfonamide]",2.9,12,13.4,13.5,15.8,23,27.8,0,6.3,34.4,34.3,20.9,45,40,100,100,100,100,0,17.2,"mortality at 1 mg/kg [4, 7]: 20%; mortality at 2 mg/kg [4, 7]: 100%; mortality at 5 mg/kg [4, 7]: 100%; insecticidal activity against mosquito larvae ([4]; in vivo): relatively high insecticidal activity; insecticidal activity against aphides compared with pymetrozine [5]: equivalent to the insecticidal activity of pymetrozine; mortality at 5 mg/kg [5]: 30%"
"CC1=NNC(=O)N(NS(=O)(=O)c2ccc(F)cc2)C1 [Ia-18, 4-fluoro-N-(6-methyl-3-oxo-2,3-dihydro-1,2,4-triazin-4(5H)-yl)-benzenesulfonamide]",14.7,12,11.9,2.7,21,8.1,5.6,4.3,3.1,14.7,18.7,22.1,50,25,100,100,100,100,0,20.7,"mortality at 2 mg/kg [4, 7]: 40%; mortality at 5 mg/kg [4, 7]: 100%; insecticidal activity against aphides compared with pymetrozine [5]: equivalent to the insecticidal activity of pymetrozine; mortality at 5 mg/kg [5]: 45%"
"CCCS(=O)(=O)NN1CC(C)=NNC1=O [Ia-3, N-(6-methyl-3-oxo-2,3-dihydro-1,2,4-triazin-4(5H)-yl)-n-propylsulfonamide]",0,26.3,0,3.3,35,0,24.5,47.7,16.7,12.5,22.2,14.3,25,20,55,40,75,95,10,16.7,
"CCCCS(=O)(=O)N(N1CC(C)=NNC1=O)S(=O)(=O)CCCC [Ib-4, N-(n-butylsulfonyl)-N-(6-methyl-3-oxo-2,3-dihydro-1,2,4-triazin-4(5H)-yl)-butyl-1-sulfonamide]",20,15.8,19,3.3,43.3,27.6,34.7,65.5,20.8,29.2,33.3,27,15,10,75,,,90,45,50,
